US20130165396A1, “Apple Skin Extracts for Treating Cardiovascular Disease” (NATIONAL RESEARCH COUNCIL OF CANADA, priority 2010, published 2013)
Marks after values point to notes of the source that are not given here.

Assays:
Type in all cases: biochemical
[1] = test system: LDL isolated from human plasma; assay: TBARS assay, AAPH-induced LDL oxidation
Description: (§1) To remove the inherent antioxidants, purchased LDL was dialyzed using Fisherbrand cellulose dialysis tubing (type T3 membrane, Thermo Fisher Scientific Inc., Ottawa, ON, Canada) against PBS containing 0.138 M NaCl and 0.0027 M KCl (pH 7.4, at 25° C.) at 4° C. for 24 hours. The buffer was changed every six hours. The dialyzed LDL was immediately used or stored at −80° C. in the dark under nitrogen and used within two to three weeks. Protein content of the dialyzed LDL was measured by the Lowry's method (Lowry et al., J. Biol. Chem., 1951, 193: […]) using bovine serum albumin as the standard.
(§2) Two oxidation induction methods were used: copper sulfate and 2,2′-azobis(2-methylpropionamidine)dihydrochloride (AAPH). For both induction systems, 100 μg/mL of final LDL protein concentration was used. LDL was oxidized at the presence of 10 μM final concentration of Cu^2+and 5 mM final concentration of AAPH separately at 37° C. for 4 h in the dark. […] Oxidation was terminated by adding a 1:1 mixture of 1 mM solution of ethylenediaminetetraacetic acid (EDTA) and 1 mM solution of butylated hydroxytoluene (BHT).
(§3) Two main constituents of TAE and oleanolic acid, which is an isomer of ursolic acid, were also used to investigate the concentration-responsiveness. The same concentrations of Cu^2+ and AAPH were used and the oxidation was terminated by a 1:1 mixture of EDTA and BHT as explained earlier under this section.
(§4) TBARS were measured according to the method of Xu et al., J. Food Sci., 2007, 72: S522-S527 with slight modifications. […] The mixture was incubated at 95° C. for 30 min to develop a pink chromogen. After cooling to room temperature tubes were centrifuged at 1500 g for 15 min and the fluorescence was measured using the FLUOstar OPTIMA plate reader (BMG Labtech Inc. Canada). Excitation and emission wavelengths used were 532 and 590 nm, respectively. TBARS activity was expressed as the percent inhibition (Equation 1) of LDL oxidation with comparison to the positive control, where F is fluorescence:
(§5) Percent inhibition (%)=100(Fpositive control−Fsample)/(Fpositive control) (1)

[2] = test system: LDL isolated from human plasma; assay: TBARS assay, Cu2+-induced LDL oxidation
Description: as §1, §2, §3, §4, §5

[3] = test system: LDL isolated from human plasma; assay: In vitro LDL oxidation inhibition, statements covering both induction systems or both product types; details: 5-50 mg L^−1
Description: as §2, §3
TBARS were measured according to the method of Xu et al., J. Food Sci., 2007, 72: S522-S527 with slight modifications. […]. The mixture was incubated at 95° C. for 30 min to develop a pink chromogen. After cooling to room temperature tubes were centrifuged at 1500 g for 15 min and the fluorescence was measured using the FLUOstar OPTIMA plate reader (BMG Labtech Inc. Canada). Excitation and emission wavelengths used were 532 and 590 nm, respectively. TBARS activity was expressed as the percent inhibition (Equation 1) of LDL oxidation with comparison to the positive control, where F is fluorescence:
The formation of hydroperoxides was measured by the lipid compatible formulation of the Peroxoquant™ quantitative peroxide assay kit. LDL oxidation was induced by Cu^2+ or AAPH and incubated for 4 hrs at 37° C. in the dark. Hydroperoxides were measured following the manufacturer's instructions. Absorbance was measured at 595 nm using FLUOstar OPTIMA plate reader (BMG Labtech, Durham, N.C., USA). Activity of hydroperoxides was expressed as the percent inhibition of LDL with comparison to the positive control (Equation 1).

[4] = 50 mg L^−1, comparison of constituent compounds and metabolites (Table 4)

Compound | Percent inhibition of secondary LDL oxidation products, AAPH induction [1, 4] | Percent inhibition of secondary LDL oxidation products, Cu induction [2, 4] | Percent inhibition of secondary LDL oxidation products, AAPH induction ([1]; 1 mg L^−1) | Percent inhibition of secondary LDL oxidation products, AAPH induction ([1]; 10 mg L^−1) | Percent inhibition of secondary LDL oxidation products, AAPH induction ([1]; 50 mg L^−1) | Percent inhibition of secondary LDL oxidation products, Cu induction ([2]; 1 mg L^−1) | Percent inhibition of secondary LDL oxidation products, AAPH induction ([1]; 100 mg L^−1) | Percent inhibition of secondary LDL oxidation products, AAPH induction ([1]; 200 mg L^−1) | Percent inhibition of secondary LDL oxidation products, AAPH induction ([1]; 300 mg L^−1) | Percent inhibition of secondary LDL oxidation products, AAPH induction ([1]; 400 mg L^−1) | Percent inhibition of secondary LDL oxidation products, AAPH induction ([1]; 500 mg L^−1) | Percent inhibition of secondary LDL oxidation products, Cu induction ([2]; 10 mg L^−1) | Percent inhibition of secondary LDL oxidation products, Cu induction ([2]; 50 mg L^−1) | Percent inhibition of secondary LDL oxidation products, Cu induction ([2]; 100 mg L^−1) | Percent inhibition of secondary LDL oxidation products, Cu induction ([2]; 200 mg L^−1) | Percent inhibition of secondary LDL oxidation products, Cu induction ([2]; 300 mg L^−1) | Percent inhibition of secondary LDL oxidation products, Cu induction ([2]; 400 mg L^−1) | Percent inhibition of secondary LDL oxidation products, Cu induction ([2]; 500 mg L^−1) | also measured
O=c1c(O[C@@H]2O[C@H](CO)[C@@H](O)[C@H](O)[C@H]2O)c(-c2ccc(O)c(O)c2)oc2cc(O)cc(O)c12 [Quercetin-3-O-glucoside] | 138.25 ± 1.97^a % | 104.13 ± 0.48^ab % |  |  |  |  |  |  |  |  |  |  |  |  |  |  |  |  | 
O=c1c(O)c(-c2ccc(O)c(O)c2)oc2cc(O)cc(O)c12 [Quercetin] | 85.06 ± 1.23^c % |  | 66.41 ± 0.83^b % | 90.20 ± 0.63^a % | 91.90 ± 0.69^a % | 85.87 ± 1.55^b % |  |  |  |  |  |  |  |  |  |  |  |  | Pro-oxidant effect (statement) [3]: did not show any pro-oxidant effect; Percent inhibition of secondary LDL oxidation products, AAPH induction ([1]; 0.0005 mg L^−1): 13.41 ± 0.67^e %; Percent inhibition of secondary LDL oxidation products, AAPH induction ([1]; 0.001 mg L^−1): 28.18 ± 2.19^d %; Percent inhibition of secondary LDL oxidation products, AAPH induction ([1]; 0.005 mg L^−1): 23.17 ± 1.48^d %; Percent inhibition of secondary LDL oxidation products, AAPH induction ([1]; 0.01 mg L^−1): 16.71 ± 1.18^e %; Percent inhibition of secondary LDL oxidation products, AAPH induction ([1]; 0.5 mg L^−1): 46.78 ± 0.85^c %; Percent inhibition of secondary LDL oxidation products, AAPH induction ([1]; 5 mg L^−1): 86.62 ± 2.00^a %; Percent inhibition of secondary LDL oxidation products, AAPH induction ([1]; 25 mg L^−1): 92.04 ± 0.51^a %; Protection for AAPH induced LDL oxidation ([1]; beyond 5 mg L^−1): more than 80%; Percent inhibition of secondary LDL oxidation products, Cu induction ([2]; 0.0005 mg L^−1): 13.97 ± 2.56^d %; Percent inhibition of secondary LDL oxidation products, Cu induction ([2]; 0.005 mg L^−1): 8.07 ± 3.33^de %; Percent inhibition of secondary LDL oxidation products, Cu induction ([2]; 0.01 mg L^−1): 4.62 ± 1.03^e %; Percent inhibition of secondary LDL oxidation products, Cu induction ([2]; 0.5 mg L^−1): 75.68 ± 1.31^c %; Protection for Cu2+ induced LDL oxidation ([2]; beyond 1 mg L^−1): more than 80%
COc1cc(-c2oc3cc(O)cc(O)c3c(=O)c2OC2OC(C(=O)O)C(O)C(O)C2O)ccc1O (stereo not shown) [Isorhamnetin-3-glucuronic acid] | 51.79 ± 1.27^e % | 20.28 ± 1.49^e % |  |  |  |  |  |  |  |  |  |  |  |  |  |  |  |  | 
C[C@H]1[C@H](C)CC[C@]2(C(=O)O)CC[C@]3(C)C(=CC[C@@H]4[C@@]5(C)C[C@@H](O)[C@H](O)C(C)(C)[C@@H]5CC[C@]43C)[C@H]12 [Corosolic acid] |  |  | 6.09 ± 1.83^d % | 5.69 ± 1.46^d % | 32.80 ± 5.49^bc % | −17.84 ± 5.15^ab % | 29.84 ± 2.89^c % | 45.49 ± 3.46^ab % | 47.55 ± 1.17^a % | 51.18 ± 1.73^a % | 46.63 ± 3.91^a % | 3.17 ± 4.20^a % | −6.04 ± 3.62^ab % | −24.94 ± 2.90^be % | −54.17 ± 5.21^d % | −49.93 ± 3.74^d % | −39.57 ± 3.91^cd % | −0.50 ± 5.98^a % | AAPH-induced LDL oxidation inhibition ([1]; greater than 200 mg L^−1): more than 40%; Protection against Cu2+-induced LDL oxidation (statement) [2]: did not show any protection
O=C(/C=C/c1ccc(O)c(O)c1)O[C@@H]1C[C@](O)(C(=O)O)C[C@@H](O)[C@H]1O [Chlorogenic acid] | 100.18 ± 3.29^b % | 126.30 ± 1.45^a % |  |  |  |  |  |  |  |  |  |  |  |  |  |  |  |  | 
CC1(C)CC[C@]2(C(=O)O)CC[C@]3(C)C(=CC[C@@H]4[C@@]5(C)CC[C@H](O)C(C)(C)[C@@H]5CC[C@]43C)[C@@H]2C1 [Oleanolic acid] |  |  | 17.57 ± 8.28^b % | 31.90 ± 0.95^ab % | 37.43 ± 1.98^a % | 12.06 ± 2.46^a % | 30.69 ± 3.22^ab % | 16.75 ± 4.41^b % | 26.13 ± 3.09^ab % | 26.20 ± 4.41^ab % | 29.17 ± 1.58^ab % | −3.01 ± 3.42^ab % | 12.30 ± 2.73^a % | −13.37 ± 5.59^b % | −47.00 ± 3.05^c % | −94.49 ± 4.34^d % | −74.73 ± 5.82^d % | −78.32 ± 4.31^d % | Protection for AAPH-induced LDL oxidation ([1]; 10-100 mg L^−1): around 30%
OC[C@H]1O[C@@H](Oc2cc3c(O)cc(O)cc3[o+]c2-c2ccc(O)c(O)c2)[C@H](O)[C@@H](O)[C@H]1O [Cyanidin-3-O-galactoside] | 70.43 ± 1.23^d % | 104.31 ± 2.25^ab % |  |  |  |  |  |  |  |  |  |  |  |  |  |  |  |  | Cu2+-induced LDL oxidation (statement) ([2]; 50 mg L^−1): promising results
C[C@H]1[C@H](C)CC[C@]2(C(=O)O)CC[C@]3(C)C(=CC[C@@H]4[C@@]5(C)CC[C@H](O)C(C)(C)[C@@H]5CC[C@]43C)[C@H]12 [Ursolic acid] |  |  | −16.71 ± 1.72^d % | −16.51 ± 2.32^d % | 24.25 ± 2.54^c % | 7.10 ± 1.52^c % | 54.07 ± 2.88^b % | 49.91 ± 3.26^b % | 71.45 ± 5.14^a % | 54.20 ± 2.50^b % | 46.52 ± 2.39^b % | −5.10 ± 0.69^d % | 19.08 ± 2.59^c % | 16.73 ± 1.49^c % | 36.62 ± 5.69^a % | 34.93 ± 5.08^ab % | 42.45 ± 1.02^a % | 39.63 ± 3.85^a % | Concentration giving a greater protection against AAPH-induced LDL oxidation [1]: 300 mg/L; Inhibiting peroxyl-radical-induced LDL oxidation compared to corosolic and oleanolic acids (statement) [1]: more effective; Protection for AAPH-induced LDL oxidation ([1]; beyond 100 mg L^−1): more than 40%; Protection against Cu2+-induced LDL oxidation (statement) [2]: a certain degree of protection
O=c1c(O)c(-c2ccc(O)c(OS(=O)(=O)O)c2)oc2cc(O)cc(O)c12 [Quercetin-3′-sulfate] | 59.63 ± 1.90^e % | 38.11 ± 1.84^de % |  |  |  |  |  |  |  |  |  |  |  |  |  |  |  |  | 
